We go through 16 compounds from patent US20230024108A1, “ADENOSINE A2A RECEPTOR ANTAGONISTS” (Teon Therapeutics, Inc., priority 2019, published 2023).

For experiment [1], the target named is T1, human A2A AdoR (Homo sapiens, UniProt P29274).
T1 construct: purchased PerkinElmer RBHA2AM400UA
Description: Adenosine receptor binding assay, A2A ([3H]-CGS-21680). The conditions noted are these: membranes of HEK-293 cells expressing human A2A AdoR; read-out: hA2A IC50. Put shortly: (§1)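 Filtration binding on membranes: A2A in HEK-293 with 6 nM [3H]-CGS-21680, Tris pH 7.4, 2 h; A2B in HEK-293 with 8 nM [3H]-DPCPX, HEPES pH 7.0, 1 h; A1 in CHO-K1 with 1 nM [3H]-DPCPX, HEPES pH 7.4, 1 h; room temperature. 8-point dilutions; IC50 converted to Ki (Cheng–Prusoff).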

The subject of experiment [2] is phospho-CREB (pCREB). Description: Human whole blood phospho-CREB (pCREB) assay / modulation of pCREB in human immune cells. The conditions noted are these: agonist (NECA or CGS-21680)-stimulated human blood cells. Format: cell-based. As for the experimental part:
Fresh human blood samples are derived from healthy volunteers and processed in heparin tubes. 67.5 ul of whole blood is aliquoted to each well in a 96-well plate and incubated at 37° C. for 30 min. Testing compounds are diluted with DMSO to make 8-point 3-fold serial dilution and 3.5 ul (20×) is added to each well. Cells are incubated with the compounds at 37° C. for 30 min. NECA (5 uM) is then added to each well and cells are incubated for 30 min at 37° C. Following the stimulation, cells are transferred to a 96-well deep well plates and fixed with 1 ml/well of lyse/fix buffer (1×) (BD Biosciences #558049) with vigorous shake at 37° C. for 10 min. Cells are centrifuged at 600 g for 6 min and washed twice with PBS, followed by addition of 800 ul/well Perm buffer III (BD Biosciences #558050). Cells are then pelleted at 600 g for 6 min, washed with FACS buffer (PBS+0.2% BSA+1 mM EDTA) and stained for 40 min at room temperature in the dark with an antibody cocktail containing PE mouse anti-human CD3 (BD Biosciences #555333, 1 ul/well), FITC mouse anti-human CD4 (BD Biosciences #5555346, 1 ul/well), PerCP-Cy™5.5 mouse anti-human CD8 (BD Biosciences #565310, 1 ul/well) and phospho-CREB (Ser133) (87G3) Rabbit mAb (Alexa Fluor® 647 Conjugate, CST #14001, 0.5 ul/well). Cells are then washed twice with FACS buffer and acquired on a flow cytometer (Sony Cell Sorter SH800). Data were analyzed using FlowJo version 9. The level of CREB phosphorylation from unstimulated cells (Low control: LC) and NECA-stimulated cells (High control: HC) are determined as mean fluorescent intensity (MFI) in stimulated condition/mean fluorescent intensity in unstimulated condition. % Inhibition is calculated as (MFI of HC-MFI of assay well)/(MFI of HC-MFI of LC)×100%. Data are analyzed and IC50s calculated using GraphPad Prism 5 and the model “log(inhibitor) vs. response—Variable slope”.
The A2A receptor is known to mediate CREB phosphorylation.
Venous blood from healthy volunteers, all of whom signed an informed consent approved by the Ethics Committee (FOR—UIC-BV-050-01-01 ICF HBS HD Version 5.0), was obtained via ImmuneHealth (Centre Hospitalier Universitaire Tivoli, La Louviere,
15 Belgium). Peripheral blood cells were treated with A2AR agonists CGS-21680 or NECA (Sigma-Aldrich, Diegem, Belgium), and a serial dilution of compounds disclosed herein (all used stock solutions at 10 mM in DMSO). All dilutions were prepared in RPMI1640 medium (with UltraGlutamine; Lonza, Venders, Belgium), and cells were incubated with compounds in a 37° C. humidified tissue culture incubator with 5% CO2.
After stimulation, cells were fixed and permeabilized, followed by intracellular staining using mouse anti-human pCREB antibodies (Clone J151-21; BD Biosciences) at room temperature. Data were acquired using an LSRFortessa flow cytometer (BD Biosciences) and analyzed using FlowJo software (FlowJo, LLC, Ashland, Oregon).

Experiment [3] concerns the target T2, A1AdoR (Homo sapiens, UniProt P30542).
T2 construct: purchased PerkinElmer ES-010-M400UA
T2 sequence (P30542 1-326): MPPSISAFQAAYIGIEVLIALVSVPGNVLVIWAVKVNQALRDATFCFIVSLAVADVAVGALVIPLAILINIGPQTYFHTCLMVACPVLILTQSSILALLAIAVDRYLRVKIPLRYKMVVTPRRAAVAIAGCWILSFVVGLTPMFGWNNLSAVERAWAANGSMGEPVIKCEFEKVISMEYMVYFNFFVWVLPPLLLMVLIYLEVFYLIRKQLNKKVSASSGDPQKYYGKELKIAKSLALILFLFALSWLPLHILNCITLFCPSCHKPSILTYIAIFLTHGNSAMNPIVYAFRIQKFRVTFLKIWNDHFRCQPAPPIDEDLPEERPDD
As to the kind of experiment: Adenosine receptor binding assay, A1 ([3H]-DPCPX). The conditions noted are these: ratio A1 vs A2A binding. Summed up: as §1

pEC50, pIC50: −log10 of the molar value. Bounds are passed on as bounds.

T1 sequence (P29274 whole entry): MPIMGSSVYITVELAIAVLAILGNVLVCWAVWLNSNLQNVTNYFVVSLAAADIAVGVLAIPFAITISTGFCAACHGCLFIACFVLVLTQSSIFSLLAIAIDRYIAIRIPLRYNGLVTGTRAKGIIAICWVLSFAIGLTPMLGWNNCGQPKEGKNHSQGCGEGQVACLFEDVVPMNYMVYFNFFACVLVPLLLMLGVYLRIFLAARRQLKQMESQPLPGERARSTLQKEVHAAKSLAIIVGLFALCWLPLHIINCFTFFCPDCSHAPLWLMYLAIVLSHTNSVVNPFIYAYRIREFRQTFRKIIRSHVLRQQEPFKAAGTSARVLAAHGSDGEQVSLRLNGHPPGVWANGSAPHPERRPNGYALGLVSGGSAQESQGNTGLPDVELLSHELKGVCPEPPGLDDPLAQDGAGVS

Take `CS(=O)(=O)NC(=O)COc1ccc(N2CCN(CCn3c(C#N)c(Cl)c4c3nc(N)n3nc(-c5ccccn5)nc43)CC2)cc1`: the pIC50 in experiment [1] was not below 7.70. In experiment [2], the pEC50 was 7.00 to 7.70. In experiment [3], the “A1/A2A Selectivity” value is on record as “b (greater than 100 but less than or equal to 1000)”.

Regarding `CC#Cc1nc2c3ncn(CCN4CCN(c5cc(-c6ncco6)ccc5F)CC4)c3nc(N)n2n1`, in experiment [1], the negative logarithm of the IC50 (pIC50) is not below 7.70. In addition, in experiment [2], the pEC50 is 7.00 to 7.70. The “A1/A2A Selectivity” value in experiment [3] was “a (greater than 1000)”.

In the case of `Cc1c(C(N)=O)n(CCN2CCN(c3cc(-c4ncco4)ccc3F)CC2)c2nc(N)n3nc(-c4ccccn4)nc3c12`, in experiment [1], the pIC50 is not below 7.70. Besides, in experiment [2], the pEC50 is not below 7.70. Also, in experiment [3], the “A1/A2A Selectivity” value is on record as “a (greater than 1000)”.

In the case of `CNC(=O)c1c(C)c2c(nc(N)n3nc(-c4ccccn4)nc23)n1CCN1CCN(c2cc(-c3ncco3)ccc2F)CC1`, the pIC50 in experiment [1] was not below 7.70. Besides, the pEC50 in experiment [2] was not below 7.70. Further, the “A1/A2A Selectivity” value in experiment [3] is given as “a (greater than 1000)”.

`Cc1c(C(=O)N2CCC2)n(CCN2CCN(c3cc(-c4ncco4)ccc3F)CC2)c2nc(N)n3nc(-c4ccccn4)nc3c12`: in experiment [1], the negative logarithm of the IC50 (pIC50) was not below 7.70. In experiment [2], this compound had a negative-log EC50 (pEC50) of 7.00 to 7.70. Also, the “A1/A2A Selectivity” value in experiment [3] is “b (greater than 100 but less than or equal to 1000)”.

Take `N#Cc1c(Cl)c2c(nc(N)n3nc(-c4ccccn4)nc23)n1CCN1CCN(c2cc(-c3ncco3)ccc2F)CC1`: in experiment [1], the pIC50 is not below 7.70. This compound also had a negative logarithm of the EC50 (pEC50) in experiment [2] of 7.00 to 7.70.

Turning to `Cc1cn(CCN2CCN(c3cc(-c4ncco4)ccc3F)CC2)c2nc(N)n3nc(-c4ccccn4)nc3c12`, the negative-log IC50 (pIC50) in experiment [1] was not below 7.70. Also, the negative-log EC50 (pEC50) in experiment [2] is 7.00 to 7.70. For the same compound, in experiment [3], the “A1/A2A Selectivity” value is reported as “c (greater than 0 but less than or equal to 100)”.

With `COC(=O)c1c(C)c2c(nc(N)n3nc(-c4ccccn4)nc23)n1CCN1CCN(c2cc(-c3ncco3)ccc2F)CC1`, the negative logarithm of the IC50 (pIC50) in experiment [1] is not below 7.70. The compound further gave a pEC50 in experiment [2] of less than 7.00. Besides, the “A1/A2A Selectivity” value in experiment [3] is “a (greater than 1000)”.

Take `CS(=O)(=O)NC(=O)COc1ccc(N2CCN(CCn3c(C#N)cc4c3nc(N)n3nc(-c5ccccn5)nc43)CC2)cc1` [2-(4-(4-(2-(5-amino-8-cyano-2-(pyridin-2-yl)-7H-pyrrolo[3,2-e][1,2,4]triazolo[1,5-c]pyrimidin-7-yl)ethyl)piperazin-1-yl)phenoxy)-N-(methylsulfonyl)acetamide]: the negative logarithm of the IC50 (pIC50) in experiment [1] is not below 7.70. In addition, the pEC50 in experiment [2] is less than 7.00. Moreover, in experiment [3], the “A1/A2A Selectivity” value is given as “b (greater than 100 but less than or equal to 1000)”.

Consider `Cc1noc2cc(F)c(N3CCN(CCn4cnc5c4nc(N)n4nc(-c6ccccn6)nc54)CC3)cc12` [3-(2-(4-(6-fluoro-3-methylbenzo[d]isoxazol-5-yl)piperazin-1-yl)ethyl)-8-(pyridin-2-yl)-3H-[1,2,4]triazolo[5,1-i]purin-5-amine], for which the pIC50 in experiment [1] is not below 7.70. The compound also showed a pEC50 in experiment [2] of less than 7.00. Moreover, the “A1/A2A Selectivity” value in experiment [3] is listed as “b (greater than 100 but less than or equal to 1000)”.

For the compound `CNC(=O)c1cc2c(nc(N)n3nc(-c4ccccn4)nc23)n1CCN1CCN(c2cc(-c3ncco3)ccc2F)CC1` [5-amino-7-(2-(4-(2-fluoro-5-(oxazol-2-yl)phenyl)piperazin-1-yl)ethyl)-N-methyl-2-(pyridin-2-yl)-7H-pyrrolo[3,2-e][1,2,4]triazolo[1,5-c]pyrimidine-8-carboxamide], the negative logarithm of the IC50 (pIC50) in experiment [1] was not below 7.70. The negative logarithm of the EC50 (pEC50) in experiment [2] was less than 7.00. Besides, the “A1/A2A Selectivity” value in experiment [3] is listed as “c (greater than 0 but less than or equal to 100)”.

For `Cc1cnc2c(c1)CN(CCn1nc(Cl)c3c1nc(N)n1nc(-c4ccccn4)nc31)CC2` [9-chloro-7-(2-(3-methyl-7,8-dihydro-1,6-naphthyridin-6(5H)-yl)ethyl)-2-(pyridin-2-yl)-7H-pyrazolo[4,3-e][1,2,4]triazolo[1,5-c]pyrimidin-5-amine], in experiment [1], the pIC50 was not below 7.70. Besides, in experiment [3], the “A1/A2A Selectivity” value is reported as “c (greater than 0 but less than or equal to 100)”.

`COC(=O)c1cc2c(nc(N)n3nc(-c4ccccn4)nc23)n1CCN1CCN(c2cc(-c3ncco3)ccc2F)CC1` [methyl 5-amino-7-(2-(4-(2-fluoro-5-(oxazol-2-yl)phenyl)piperazin-1-yl)ethyl)-2-(pyridin-2-yl)-7H-pyrrolo[3,2-e][1,2,4]triazolo[1,5-c]pyrimidine-8-carboxylate]: the pIC50 in experiment [1] is not below 7.70. The “A1/A2A Selectivity” value in experiment [3] was “a (greater than 1000)”.

On to `COC(=O)c1c(C)c2c(nc(N)n3nc(-c4ccccn4)nc23)n1CCN1CCN(c2cc(C)ncc2F)CC1` [methyl 5-amino-7-(2-(4-(5-fluoro-2-methylpyridin-4-yl)piperazin-1-yl)ethyl)-9-methyl-2-(pyridin-2-yl)-7H-pyrrolo[3,2-e][1,2,4]triazolo[1,5-c]pyrimidine-8-carboxylate], for which the pIC50 in experiment [1] is not below 7.70. The “A1/A2A Selectivity” value in experiment [3] is on record as “a (greater than 1000)”.

With `COC(=O)c1c(C)c2c(nc(N)n3nc(-c4ccccn4)nc23)n1CCN1CCCN(c2cc3c(C)noc3cc2F)CC1` [methyl 5-amino-7-(2-(4-(6-fluoro-3-methylbenzo[d]isoxazol-5-yl)-1,4-diazepan-1-yl)ethyl)-9-methyl-2-(pyridin-2-yl)-7H-pyrrolo[3,2-e][1,2,4]triazolo[1,5-c]pyrimidine-8-carboxylate], the negative logarithm of the IC50 (pIC50) in experiment [1] was not below 7.70. The “A1/A2A Selectivity” value in experiment [3] was “b (greater than 100 but less than or equal to 1000)”.

In the case of `COC(=O)c1c(Cl)c2c(nc(N)n3nc(-c4ccccn4)nc23)n1CCN1CCN(c2cc(-c3ncco3)ccc2F)CC1` [methyl 5-amino-9-chloro-7-(2-(4-(2-fluoro-5-(oxazol-2-yl)phenyl)piperazin-1-yl)ethyl)-2-(pyridin-2-yl)-7H-pyrrolo[3,2-e][1,2,4]triazolo[1,5-c]pyrimidine-8-carboxylate], the negative logarithm of the IC50 (pIC50) in experiment [1] was not below 7.70. Further, in experiment [3], the “A1/A2A Selectivity” value was “a (greater than 1000)”.
